Measurements reported in patent publication US9439438B2 (priority 2011, dated 2016).

Tested on: mice
Conditions: mouse, in vivo

SMILES: [Cl][Mn][Cl] [Mn, MnCl2]
- resistance to a lethal STx challenge: completely resistant
